{"source": "patent US9610289B2", "about": "“Combinations of AKT inhibitor compounds and erlotinib, and methods of use” (Genentech, Inc., priority 2011, dated 2017)", "origin": "cited, not measured here", "target": "T1, topoisomerase I (Homo sapiens, UniProt P11387)", "T1 sequence (P11387 1-765)": "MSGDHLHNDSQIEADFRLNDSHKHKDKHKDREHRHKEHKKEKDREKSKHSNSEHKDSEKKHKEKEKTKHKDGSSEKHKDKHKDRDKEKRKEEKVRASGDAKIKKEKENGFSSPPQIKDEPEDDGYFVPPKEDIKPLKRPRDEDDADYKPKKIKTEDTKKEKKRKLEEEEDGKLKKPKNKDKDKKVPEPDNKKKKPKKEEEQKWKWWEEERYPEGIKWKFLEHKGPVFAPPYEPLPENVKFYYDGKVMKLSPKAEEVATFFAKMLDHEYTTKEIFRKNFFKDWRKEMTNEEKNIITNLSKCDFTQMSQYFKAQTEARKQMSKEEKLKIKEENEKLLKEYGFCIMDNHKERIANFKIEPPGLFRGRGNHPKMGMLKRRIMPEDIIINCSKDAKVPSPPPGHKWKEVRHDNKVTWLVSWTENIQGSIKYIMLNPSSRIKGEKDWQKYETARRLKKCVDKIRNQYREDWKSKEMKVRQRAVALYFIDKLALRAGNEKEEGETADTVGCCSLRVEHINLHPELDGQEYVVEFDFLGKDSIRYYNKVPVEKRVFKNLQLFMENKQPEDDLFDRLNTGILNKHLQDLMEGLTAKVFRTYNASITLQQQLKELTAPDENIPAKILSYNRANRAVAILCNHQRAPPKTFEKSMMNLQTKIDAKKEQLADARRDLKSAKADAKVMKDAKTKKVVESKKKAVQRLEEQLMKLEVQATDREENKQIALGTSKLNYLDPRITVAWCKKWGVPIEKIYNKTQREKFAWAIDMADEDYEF", "conditions": "active metabolite versus irinotecan"}
{"smiles": "CCc1c2c(nc3ccc(O)cc13)-c1cc3c(c(=O)n1C2)COC(=O)[C@]3(O)CC", "note": "[SN-38, 7-ethyl-10-hydroxy-camptothecin]", "values": [{"measurement": "more active than irinotecan itself", "result": 200, "unit": "times"}]}
